Test results from BindingDB's records for doi:10.1124/mol.110.070540 (University of Technology Sydney, 2011).
Bridge positions count the residues as written; N and C are the ends. Peptide text beside a SMILES is read from it.

Columns and labels:
[1] = Inhibition of voltage-gated calcium channel Cav-mediated fast-transient current in Periplaneta americana (American cockroach) DUM neurons assessed as measured at holding potential -80 mV depolarized to +40 mV after 10 min by whole cell patch clamp assay in presence of CdCl2
[2] = Inhibition of voltage-gated calcium channel Cav-mediated late-sustained current in Periplaneta americana (American cockroach) DUM neurons assessed as measured at holding potential -80 mV depolarized to +40 mV after 10 min by whole cell patch clamp assay in presence of CdCl2

CSCC[C@@H]1NC(=O)[C@H](CCCCN)NC(=O)[C@H](Cc2ccccc2)NC(=O)[C@H](CCC(N)=O)NC(=O)[C@@H](NC(=O)[C@@H](N)Cc2ccc(O)cc2)CSSC[C@@H]2NC(=O)[C@@H]3CSSC[C@@H](C(=O)N[C@@H](CCCCN)C(=O)N[C@@H](CC(C)C)C(=O)N[C@@H](CC(N)=O)C(=O)N[C@@H](CC(C)C)C(=O)O)NC(=O)[C@H](Cc4c[nH]c5ccccc45)NC(=O)[C@H](CC(C)C)NC(=O)[C@H](CCCNC(=N)N)NC(=O)[C@H](CSSC[C@H](NC(=O)[C@H]([C@@H](C)O)NC(=O)[C@H](Cc4c[nH]c5ccccc45)NC1=O)C(=O)N[C@@H](CC(=O)O)C(=O)N[C@@H](CO)C(=O)N[C@@H](CCC(=O)O)C(=O)N[C@@H](CCCNC(=N)N)C(=O)N[C@@H](CCCCN)C(=O)N3)NC(=O)[C@H](C(C)C)NC(=O)[C@H](CCSC)NC(=O)[C@H](CC(=O)O)NC(=O)[C@H](CCC(=O)O)NC2=O
IC50 [1]: 25 nM
IC50 [2]: 19 nM

CSCC[C@@H]1NC(=O)[C@H](CC(=O)O)NC(=O)[C@H](CCC(=O)O)NC(=O)[C@@H]2CSSC[C@H](NC(=O)[C@@H](N)Cc3ccc(O)cc3)C(=O)N[C@@H](CCC(N)=O)C(=O)N[C@@H](CCCCN)C(=O)N[C@@H](Cc3ccccc3)C(=O)N[C@@H](CC(C)C)C(=O)N[C@@H](Cc3c[nH]c4ccccc34)C(=O)N[C@@H]([C@@H](C)O)C(=O)N[C@H]3CSSC[C@H](NC(=O)[C@H](C(C)C)NC1=O)C(=O)N[C@@H](CCC(=O)O)C(=O)N[C@@H](CC(C)C)C(=O)N[C@@H](Cc1c[nH]c4ccccc14)C(=O)N[C@H](C(=O)N[C@@H](CCCCN)C(=O)N[C@@H](Cc1ccc(O)cc1)C(=O)N[C@@H](CCCCN)C(=O)N[C@@H](CCC(=O)O)C(=O)O)CSSC[C@H](NC(=O)[C@H](CCCCN)NC(=O)[C@H](CCCNC(=N)N)NC(=O)[C@H](CCC(=O)O)NC(=O)[C@H]([C@@H](C)O)NC(=O)[C@H](CC(=O)O)NC3=O)C(=O)N2 (H-YCQKFLWTCDTERKCCEDMVCELWCKYKE-OH; disulfide 2-16, 9-21, 15-25)
IC50 [1]: 25 nM
IC50 [2]: 26 nM

CSCC[C@@H]1NC(=O)[C@H](CC(=O)O)NC(=O)[C@H](CCC(=O)O)NC(=O)[C@@H]2CSSC[C@H](NC(=O)[C@@H](N)Cc3ccc(O)cc3)C(=O)N[C@@H](CCC(N)=O)C(=O)N[C@@H](CCCCN)C(=O)N[C@@H](Cc3ccccc3)C(=O)N[C@@H](CC(C)C)C(=O)N[C@@H](Cc3c[nH]c4ccccc34)C(=O)N[C@@H]([C@@H](C)O)C(=O)N[C@H]3CSSC[C@H](NC(=O)[C@H](C(C)C)NC1=O)C(=O)N[C@@H](CCC(=O)O)C(=O)N[C@@H](CC(C)C)C(=O)N[C@@H](Cc1c[nH]c4ccccc14)C(=O)N[C@H](C(=O)N[C@@H](CCCCN)C(=O)N[C@@H](CC(C)C)C(=O)N[C@@H](CCC(=O)O)C(=O)N[C@@H](CCCCN)C(=O)O)CSSC[C@H](NC(=O)[C@H](CCCCN)NC(=O)[C@H](CCCNC(=N)N)NC(=O)[C@H](CCC(=O)O)NC(=O)[C@H]([C@@H](C)O)NC(=O)[C@H](CC(=O)O)NC3=O)C(=O)N2 (H-YCQKFLWTCDTERKCCEDMVCELWCKLEK-OH; disulfide 2-16, 9-21, 15-25)
IC50 [1]: 3.7 nM
IC50 [2]: 3.7 nM
